Patent publication US20200093744A1, “POLYMER CONSTRUCTS FOR CONTROLLED RELEASE OF GUEST AGENTS” (CASE WESTERN RESERVE UNIVERSITY, priority 2017, published 2020)

Test: Thermal stability by TGA and comparative UV-Vis before and after heating up to 220° C.
Assay type: physicochemical
Description: Thermal transitions of polymer films were obtained using DSC (TA instruments Q100) at a heating rate of 10° C./min over a temperature range of about −80 to 200° C. The thermal properties of the polymers were measured by thermogravimetric analysis (TGA) on a TA Instruments, […]. The samples were heated up to 220° C. at a heating rate of 15° C./min under a dry nitrogen atmosphere (flow rate: 70 mL/min) on a TA Instruments 2950 thermogravimetric analyzer. X-ray diffraction (XRD) measurements were conducted via a Rigaku diffractometer in transmission mode with Cu Kα X-rays (λ=0.154 nm) operating at 40 kV and 40 mA. The experiment was carried out at 25° C. with a scan speed of 0.5°/min over a scan range of 5° to 40°.
The thermal property of the polymer-guest system was also investigated by the TGA to ensure system stability during the high temperature layer multiplying coextrusion process. […] A viscosity-match temperature of layer multiplying co-extrusion was determined by a melt flow indexer (MFI) at a low shear rate as shown in FIG. 5. A 60/40 feed ratio of PEO100K/PEO200K in layer B was obtained with the processing temperature of 200° C. selected based on material rheological compatibility. The ABAB-type layer multiplication process was conducted accordingly with PE as the protective surface layer and the technique described herein used to form the multilayer film.

- conjugation structure of MO after heating (comparative UV-Vis): remained intact
Structure (SMILES): CN(C)c1ccc(N=Nc2ccc(S(=O)(=O)[O-])cc2)cc1.[Na+] [MO, methyl orange]
